ChEMBL document CHEMBL1201862, “PubChem BioAssay data set” (2004)
Active and inactive are the calls of the source.

Key:
Fatty acid synthase [1] = biological target: T1, Fatty acid synthase (Homo sapiens, UniProt P49327); assay: FAS thioesterase domain inhibitors, dose response, biochemical, endpoint fluorescence intensity, uHTS hits (AID 624327); format: functional;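 further: fluorescence from hydrolysis of an O-methyl fluorescein acyl ester substrate by the enzyme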
Fatty acid synthase [2] = biological target: T1, Fatty acid synthase; assay: FAS thioesterase domain inhibitors, dose response, biochemical, kinetic fluorescence intensity (AID 624326); format: functional;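 further: rate of fluorescence rise from hydrolysis of a fluorogenic O-methyl fluorescein ester substrate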
Vero [3] = assay: host cell cytotoxicity of antiviral hits, dose response, cytotoxicity control for West Nile virus antiviral project, secondary assay (AID 1650); format: functional; conditions: Chlorocebus sabaeus
Paired box protein Pax-8 = Paired box protein Pax-8 (Homo sapiens, UniProt Q06710); assay: inhibitors of PAX8-driven TPO luciferase reporter, dose response, RMG-I cells, cherry-pick (AID 687027); format: functional, cell-based;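 further: luciferase reporter driven by Pax8 target thyroperoxidase promoter measured by SteadyGlo luminescence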
Paired box protein Pax-8, sequence (Q06710 whole entry): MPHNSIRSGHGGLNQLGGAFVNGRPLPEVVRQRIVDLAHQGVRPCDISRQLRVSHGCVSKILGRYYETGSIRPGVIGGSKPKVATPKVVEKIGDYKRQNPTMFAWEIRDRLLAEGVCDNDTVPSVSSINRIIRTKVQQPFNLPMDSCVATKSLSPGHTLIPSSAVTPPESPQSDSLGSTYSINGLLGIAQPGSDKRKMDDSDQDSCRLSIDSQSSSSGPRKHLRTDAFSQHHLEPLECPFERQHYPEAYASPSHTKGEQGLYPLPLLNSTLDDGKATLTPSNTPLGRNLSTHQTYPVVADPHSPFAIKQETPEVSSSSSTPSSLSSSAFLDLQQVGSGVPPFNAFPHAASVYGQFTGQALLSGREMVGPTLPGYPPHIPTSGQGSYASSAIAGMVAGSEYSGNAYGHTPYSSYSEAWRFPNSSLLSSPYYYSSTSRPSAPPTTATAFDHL

[4] = A549 cell cytotoxicity, dose response, cytotoxicity control, plate reader, cherry-pick, antagonist series (AID 743412); format: functional, cell-based
[5] = HepG2 cell cytotoxicity, dose response, cytotoxicity control, plate reader, cherry-pick, antagonist series (AID 743416); format: functional, cell-based
[6] = LGR2 antagonists, dose response, cell-based, HEK293, CRE-luciferase reporter, cherry pick, set 2 (AID 743343); format: functional;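 further: transfected cells were stimulated with diluted bursicon conditioned medium after compound addition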
[7] = MC4R antagonists, dose response, counter-screen for LGR2 antagonist project, cell-based, plate reader, cherry pick (AID 743444); format: functional;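 further: transfected HEK 293 cells stimulated with alpha-MSH peptide; potency of inhibitors of the alpha-MSH evoked signal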
[8] = cytotoxicity in OVCAR8 ovarian cancer cells, dose response, PAX8 project, cell-based, plate reader, dry powder samples (AID 743197); format: functional; conditions: OVCAR-8
[9] = P. falciparum 3D7-ScDHODH growth inhibitors, dose response, SYBR Green, dry powder samples (AID 1159570); format: functional, cell-based;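 further: parasite growth measured after 72 hours of compound exposure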
[10] = HepG2 cell cytotoxicity, dose response, cytotoxicity control, plate reader, dry powder samples (AID 1159569); format: functional, cell-based;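 further: inhibitor potency with signal falling toward the positive control level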
[11] = P. falciparum Dd2 growth inhibitors, dose response, SYBR Green, cherry-picked samples (AID 1159567); format: functional, cell-based
[12] = P. falciparum Dd2 growth inhibitors, dose response, SYBR Green, dry powder samples (AID 1159566); format: functional, cell-based;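 further: potency for growth inhibition with lower SYBR green DNA signal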
[13] = HepG2 cell cytotoxicity, dose response, cytotoxicity control, cherry-picked samples (AID 1159577); format: functional, cell-based
[14] = P. falciparum ATP4 D1247Y mutant growth inhibitors, dose response, NITD609-resistant line, SYBR Green, dry powder (AID 1159571); format: functional, cell-based;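 further: parasites synchronized at ring stage by sorbitol before testing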
[15] = HeLa cell cytotoxicity, dose response, cytotoxicity control for MgcRacGAP inhibitor project (AID 624300); format: functional
[16] = biological target: T2, Rac GTPase-activating protein 1 (Homo sapiens, UniProt Q9H0H5); assay: MgcRacGAP GTPase-activating activity inhibitors, confirmation, biochemical, ADP Hunter fluorescence, primary and confirmatory (AID 624330); format: functional
T2 sequence (Q9H0H5 whole entry): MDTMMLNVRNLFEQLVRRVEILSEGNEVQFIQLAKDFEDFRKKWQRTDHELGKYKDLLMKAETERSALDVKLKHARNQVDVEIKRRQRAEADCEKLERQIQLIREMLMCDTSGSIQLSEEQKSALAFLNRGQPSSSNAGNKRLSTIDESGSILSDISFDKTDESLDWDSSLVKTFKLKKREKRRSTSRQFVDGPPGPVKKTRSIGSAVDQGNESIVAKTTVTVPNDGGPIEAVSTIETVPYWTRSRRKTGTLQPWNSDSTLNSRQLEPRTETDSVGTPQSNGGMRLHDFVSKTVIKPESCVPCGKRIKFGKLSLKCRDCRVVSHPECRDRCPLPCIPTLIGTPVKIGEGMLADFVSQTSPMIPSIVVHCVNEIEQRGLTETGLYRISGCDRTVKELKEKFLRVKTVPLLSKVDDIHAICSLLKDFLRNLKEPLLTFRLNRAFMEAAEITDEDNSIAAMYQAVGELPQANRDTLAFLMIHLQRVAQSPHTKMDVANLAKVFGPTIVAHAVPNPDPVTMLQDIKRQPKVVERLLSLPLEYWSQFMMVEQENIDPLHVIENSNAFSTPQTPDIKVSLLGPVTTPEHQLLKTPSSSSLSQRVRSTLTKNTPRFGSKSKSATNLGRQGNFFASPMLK

[17] = Luminescence Cell-Based Dose Response HTS to Identify Inhibitors of 5'UTR Stem-Loop Driven Prion Protein mRNA Translation in H4 Neuroglioblastoma Cells. [Related pubchem assays: 1827 (Project Summary), 1813 (Primary HTS)]; format: functional
[18] = inhibitors of SNCA 5'UTR-driven reporter translation, confirmation, H4 neuroglioma cells, luminescence (AID 1988); format: functional, cell-based
[19] = Luminescence-based cell-based high throughput dose response assay to identify activators of the DAF-12 from the parasite S. stercoralis (ssDAF-12).; format: functional
[20] = biological target: T3, Oxysterols receptor LXR-beta (Homo sapiens, UniProt P55055); assay: LXR agonists, Gal4 luciferase reporter, dose response, counter-screen for ssDAF-12 agonist project, cell-based, luminescence, HEK293, S. stercoralis campaign (AID 720737); format: functional; conditions: read-out: IC50 (the source's name)
T3 sequence (P55055 whole entry): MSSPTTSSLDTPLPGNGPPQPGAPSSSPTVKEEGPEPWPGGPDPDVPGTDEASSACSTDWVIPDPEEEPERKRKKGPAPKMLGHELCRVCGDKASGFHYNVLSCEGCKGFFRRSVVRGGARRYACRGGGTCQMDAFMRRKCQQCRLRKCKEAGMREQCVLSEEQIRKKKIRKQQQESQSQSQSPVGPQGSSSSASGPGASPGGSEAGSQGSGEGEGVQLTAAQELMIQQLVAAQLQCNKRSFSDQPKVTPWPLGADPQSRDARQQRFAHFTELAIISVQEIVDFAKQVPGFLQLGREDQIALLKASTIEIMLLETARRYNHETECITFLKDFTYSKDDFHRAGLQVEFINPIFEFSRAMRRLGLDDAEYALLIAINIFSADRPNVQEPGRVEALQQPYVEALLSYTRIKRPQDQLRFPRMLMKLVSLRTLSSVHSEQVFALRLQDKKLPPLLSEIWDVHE

[21] = inhibitors of intracellular T. cruzi replication, confirmation, NIH3T3 host cells, beta-gal luminescence (AID 2044); format: functional, cell-based;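 further: intracellular parasites grown in NIH/3T3 mouse fibroblasts as host cells; luminescent beta-galactosidase reporter signal from transgenic T. cruzi replicating inside host cells; inhibitors lower the luminescence signal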
[22] = cytotoxicity toward NIH3T3 fibroblasts, dose response, counter-screen, cell-based, ATP luminescence, mouse fibroblasts (AID 2010); format: functional;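 further: cells exposed to compound for about 90 hours before reading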
Vero [23] = assay: cells; format: functional; conditions: Chlorocebus sabaeus
[24] = human group III sPLA2 inhibitors, dose response, biochemical, QFRET, IC50 (AID 743457);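 further: green fluorescence rise as the enzyme cleaves BODIPY PC-A2 in liposomes; potency for inhibition of the enzyme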
[25] = biological target: Luciferin 4-monooxygenase (Photinus pyralis, UniProt P08659); assay: firefly luciferase enzyme inhibitors, dose response, biochemical, luminescence (AID 1891)
Luciferin 4-monooxygenase, sequence (P08659 whole entry): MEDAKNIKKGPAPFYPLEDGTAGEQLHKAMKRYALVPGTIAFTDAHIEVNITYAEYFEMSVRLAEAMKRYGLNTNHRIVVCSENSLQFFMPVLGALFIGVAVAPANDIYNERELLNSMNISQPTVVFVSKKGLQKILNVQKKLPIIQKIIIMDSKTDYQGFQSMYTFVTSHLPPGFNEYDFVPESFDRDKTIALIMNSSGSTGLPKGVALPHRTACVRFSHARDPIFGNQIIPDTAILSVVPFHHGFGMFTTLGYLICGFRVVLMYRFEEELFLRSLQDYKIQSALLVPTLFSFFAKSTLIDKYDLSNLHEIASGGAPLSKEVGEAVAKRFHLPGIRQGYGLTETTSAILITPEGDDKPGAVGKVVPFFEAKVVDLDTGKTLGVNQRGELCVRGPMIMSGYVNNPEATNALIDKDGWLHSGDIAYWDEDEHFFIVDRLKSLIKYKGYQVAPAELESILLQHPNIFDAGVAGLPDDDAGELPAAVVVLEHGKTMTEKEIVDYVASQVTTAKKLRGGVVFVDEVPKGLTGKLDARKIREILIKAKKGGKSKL

[26] = Luminescence Cell-Based Dose Confirmation HTS to Identify Inhibitors of Platelet Dense Granule Release. [Related pubchem assays: 1663 (Primary HTS), 1678 (Summary of Project)]; format: functional
Galanin receptor type 3 = biological target: T4, Galanin receptor type 3 (Homo sapiens, UniProt O60755); assay: Fluorescence-based cell-based primary high throughput dose response assay to identify antagonists of the Galanin Receptor 3 (GalR3).; format: functional
T4 sequence (O60755 whole entry): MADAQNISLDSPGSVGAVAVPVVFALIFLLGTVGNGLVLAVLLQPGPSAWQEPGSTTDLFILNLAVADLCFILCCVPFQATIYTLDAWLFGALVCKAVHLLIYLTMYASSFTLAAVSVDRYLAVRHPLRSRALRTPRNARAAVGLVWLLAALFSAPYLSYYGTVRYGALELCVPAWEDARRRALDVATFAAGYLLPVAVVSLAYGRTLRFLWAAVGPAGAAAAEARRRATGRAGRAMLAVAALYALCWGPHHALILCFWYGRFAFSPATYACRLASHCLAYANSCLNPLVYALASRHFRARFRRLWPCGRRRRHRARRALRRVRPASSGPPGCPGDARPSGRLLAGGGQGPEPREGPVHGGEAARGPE

cells = format: functional, cell-based; conditions: HEK-CNG
INS1 = assay: beta cell apoptosis inhibitors, cytokine rescue, dose response, luminescence, retest (AID 449756); format: functional, cell-based; conditions: Rattus norvegicus;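 further: cell death triggered by IL-1 beta plus TNF-alpha plus IFN-gamma mixture; protective hits raise ATP signal compared with cytokine alone wells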
[27] = THP-1 cell cytotoxicity, dose response, cytotoxicity control for Vif-APOBEC3G degradation inhibitor project, THP-1 cells (AID 1117359); format: functional; conditions: Human immunodeficiency virus 1, THP-1
Protein Tat = biological target: T5, Protein Tat (Human immunodeficiency virus type 1 group M subtype B (isolate HXB2)(HIV-1), UniProt P04608); format: functional;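 further: tat binding to TAR RNA read out by fluorescence polarization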
T5 sequence (P04608 whole entry): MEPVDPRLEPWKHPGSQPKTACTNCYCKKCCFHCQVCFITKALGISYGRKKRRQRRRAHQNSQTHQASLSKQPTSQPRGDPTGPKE

T1 sequence (P49327 whole entry, the tested form may be a part): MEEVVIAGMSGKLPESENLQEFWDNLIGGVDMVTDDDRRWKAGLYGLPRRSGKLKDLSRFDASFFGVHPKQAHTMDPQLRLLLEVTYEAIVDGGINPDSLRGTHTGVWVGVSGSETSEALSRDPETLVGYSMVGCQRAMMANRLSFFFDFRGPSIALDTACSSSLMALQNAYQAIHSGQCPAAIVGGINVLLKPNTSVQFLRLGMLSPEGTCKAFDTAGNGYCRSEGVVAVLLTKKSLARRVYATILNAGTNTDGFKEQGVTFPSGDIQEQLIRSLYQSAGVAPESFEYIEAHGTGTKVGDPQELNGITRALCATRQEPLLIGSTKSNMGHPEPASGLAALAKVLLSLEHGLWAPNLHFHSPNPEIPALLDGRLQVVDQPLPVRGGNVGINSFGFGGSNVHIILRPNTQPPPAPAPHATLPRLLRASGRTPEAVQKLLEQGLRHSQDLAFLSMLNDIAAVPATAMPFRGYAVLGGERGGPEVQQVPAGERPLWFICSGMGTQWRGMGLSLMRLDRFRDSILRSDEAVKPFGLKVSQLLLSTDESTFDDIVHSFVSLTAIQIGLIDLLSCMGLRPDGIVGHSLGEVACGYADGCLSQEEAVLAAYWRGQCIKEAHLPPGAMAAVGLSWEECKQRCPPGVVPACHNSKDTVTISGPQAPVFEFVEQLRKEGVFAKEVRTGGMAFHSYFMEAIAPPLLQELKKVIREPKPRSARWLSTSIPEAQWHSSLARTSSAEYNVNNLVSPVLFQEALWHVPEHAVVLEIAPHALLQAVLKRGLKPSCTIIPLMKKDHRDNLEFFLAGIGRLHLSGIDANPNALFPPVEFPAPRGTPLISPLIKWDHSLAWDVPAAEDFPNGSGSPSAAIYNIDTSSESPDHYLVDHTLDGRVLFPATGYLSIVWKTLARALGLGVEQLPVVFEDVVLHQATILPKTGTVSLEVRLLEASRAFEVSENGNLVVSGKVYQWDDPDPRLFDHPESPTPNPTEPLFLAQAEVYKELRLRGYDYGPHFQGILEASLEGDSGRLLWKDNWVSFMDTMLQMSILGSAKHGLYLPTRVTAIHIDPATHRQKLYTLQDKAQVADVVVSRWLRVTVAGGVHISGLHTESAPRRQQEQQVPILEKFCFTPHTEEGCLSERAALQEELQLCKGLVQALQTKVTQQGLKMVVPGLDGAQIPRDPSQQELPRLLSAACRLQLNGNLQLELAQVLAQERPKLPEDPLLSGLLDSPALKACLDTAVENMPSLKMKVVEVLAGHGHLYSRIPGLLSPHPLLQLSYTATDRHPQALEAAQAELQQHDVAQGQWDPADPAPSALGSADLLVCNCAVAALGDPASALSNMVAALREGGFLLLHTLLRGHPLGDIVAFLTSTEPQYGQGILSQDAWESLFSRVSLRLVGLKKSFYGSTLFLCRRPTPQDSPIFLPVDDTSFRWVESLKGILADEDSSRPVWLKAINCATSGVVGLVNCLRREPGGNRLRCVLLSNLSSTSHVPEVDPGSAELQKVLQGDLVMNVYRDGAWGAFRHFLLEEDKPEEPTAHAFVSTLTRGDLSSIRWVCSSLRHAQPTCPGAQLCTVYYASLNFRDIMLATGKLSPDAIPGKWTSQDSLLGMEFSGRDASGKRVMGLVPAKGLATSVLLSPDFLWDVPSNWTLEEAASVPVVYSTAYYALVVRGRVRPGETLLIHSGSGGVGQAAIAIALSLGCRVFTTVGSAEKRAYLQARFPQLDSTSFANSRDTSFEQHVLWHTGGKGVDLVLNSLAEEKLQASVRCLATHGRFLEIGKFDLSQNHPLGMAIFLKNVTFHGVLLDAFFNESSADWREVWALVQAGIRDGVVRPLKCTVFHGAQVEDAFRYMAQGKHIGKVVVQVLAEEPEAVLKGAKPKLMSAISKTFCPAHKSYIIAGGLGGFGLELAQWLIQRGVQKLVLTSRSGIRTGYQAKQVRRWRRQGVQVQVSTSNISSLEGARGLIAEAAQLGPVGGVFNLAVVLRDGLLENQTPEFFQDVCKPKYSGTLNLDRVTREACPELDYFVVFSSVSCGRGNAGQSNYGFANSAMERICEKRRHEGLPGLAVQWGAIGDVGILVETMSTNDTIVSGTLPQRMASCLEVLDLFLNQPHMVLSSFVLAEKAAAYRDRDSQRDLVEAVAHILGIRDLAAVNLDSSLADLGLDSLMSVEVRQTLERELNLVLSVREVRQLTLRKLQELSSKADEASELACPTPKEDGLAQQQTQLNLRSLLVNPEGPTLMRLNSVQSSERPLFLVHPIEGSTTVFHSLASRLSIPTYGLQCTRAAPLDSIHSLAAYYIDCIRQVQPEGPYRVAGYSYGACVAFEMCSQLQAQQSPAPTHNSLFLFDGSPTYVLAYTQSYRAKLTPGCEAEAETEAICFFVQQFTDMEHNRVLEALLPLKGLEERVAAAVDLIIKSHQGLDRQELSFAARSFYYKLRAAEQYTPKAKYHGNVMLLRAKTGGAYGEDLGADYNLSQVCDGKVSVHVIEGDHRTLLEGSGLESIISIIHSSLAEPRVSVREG

O=C(COC(=O)c1cccc([N+](=O)[O-])c1)NCc1cccs1
IC50 (Fatty acid synthase [1]): 13.9 µM (active)
IC50 (Fatty acid synthase [2]): 18.7 µM (active)

CCc1ccc(-c2nc(CN3CCC(C(=O)N4CCN(c5ccccc5)CC4)CC3)c(C)o2)cc1
CC50 (Vero [3]): 16.3 µM (active)

C[C@@H]1CN([C@H](C)CO)C(=O)c2c(c3ccccc3n2C)-c2ccccc2CO[C@@H]1CN(C)S(=O)(=O)c1ccc(C(F)(F)F)cc1
AC50 (Paired box protein Pax-8): 5.24 µM (active)
AC50 [4]: 19.4 µM (active)
AC50 [5]: 17.7 µM (active)
AC50 [6]: 25.9 µM (active)
AC50 [7]: 35.3 µM (active)
AC50 [8]: > 70 µM (inactive)
AC50 [9]: 3.33 µM (active)
AC50 [10]: 15.1 µM (active)
AC50 [11]: 2.41 µM (active)
AC50 [12]: 1.76 µM (active)
AC50 [13]: > 42 µM (inactive)
AC50 [14]: 2.62 µM (active)

COc1cc2c(cc1NC(=O)C(Cl)Cl)-c1ccc(NC(=O)C(Cl)Cl)cc1C2
CC50 [15]: 10.3 µM (active)
IC50 [16]: 58.4 µM (active)

COc1cccc(C(=O)Cn2c(=N)n(C)c3ccccc32)c1
EC50 [17]: 17.7 µM (active)
EC50 [18]: 6.57 µM (active)
IC50 [19]: > 67.5 µM (inactive)
EC50 [20]: > 67.5 µM (inactive)

COc1cccc(C#Cc2ccc([C@@H]3[C@@H](CO)N(C(=O)C4CCCC4)[C@H]3C#N)cc2)c1
AC50 [11]: 4.4 µM (active)
AC50 [13]: > 39 µM (inactive)

FC(F)(F)c1ccc(Oc2ccc(Cl)cc2Br)nc1
IC50 [19]: > 67.5 µM (inactive)
EC50 [20]: > 67.5 µM (inactive)

COc1cc(/C=N/NC(=O)c2cccc(NC(=O)c3ccccc3C)c2)ccc1O
CC50 [15]: 100 µM (active)
IC50 [16]: 35.9 µM (active)

N=C(N)N/N=C/c1ccc(Cl)cc1Cl
EC50 [21]: 0.204 µM (active)
EC50 [22]: 19.4 µM (active)
CC50 (Vero [23]): 18.9 µM (active)
CC50 [15]: 66.3 µM (active)

Cc1ccc(-c2ccc3c(c2)O[C@@H](CN(C)Cc2ccncc2)[C@H](C)CN([C@@H](C)CO)S3(=O)=O)cc1
AC50 [9]: 2.23 µM (active)
AC50 [10]: 24.4 µM (active)
AC50 [11]: 2.73 µM (active)
AC50 [12]: 2.2 µM (active)
AC50 [13]: > 39 µM (inactive)
AC50 [14]: 2.19 µM (active)

N=C(N)SCc1ccc(Cl)c2ccccc12
IC50 [24]: > 122 µM (inactive)

Cc1nc2ccc([N+](=O)[O-])cc2c(=O)n1Cc1ccc(Cl)cc1
IC50 (Fatty acid synthase [1]): 0.906 µM (active)
IC50 (Fatty acid synthase [2]): 1.05 µM (active)

CC1CC(=O)NN=C1c1ccc(N)c([N+](=O)[O-])c1 (stereo unspecified)
EC50 [25]: > 112 µM (not active)
EC50 [26]: < 0.088 µM (active)
IC50 (Galanin receptor type 3): 0.26 µM (active)
EC50 (cells): > 29.9 µM (inactive)

CCCOC(=O)/C(C(=N)NCc1ccccc1)=C(/O)OCCC
AC50 (INS1): 97 µM (active)
CC50 [27]: > 40 µM (active)

COc1ccccc1/C=C(/CC(=O)NCc1ccccc1)c1nc2ccccc2s1
IC50 (Protein Tat): > 100 µM (active)

CCOc1ccc(-c2noc(COC)n2)cc1OC
IC50 [19]: > 67.5 µM (inactive)
EC50 [20]: > 67.5 µM (inactive)

O=C1OC(c2ccc(F)cc2)=C/C1=C\c1ccc([N+](=O)[O-])o1
EC50 [21]: 0.501 µM (active)
EC50 [22]: > 60 µM (not active)
IC50 (Protein Tat): > 100 µM (active)

O=S(=O)(Nc1ccc2[nH]c(O)nc2c1)c1ccc(F)c(Cl)c1
CC50 [27]: > 40 µM (active)

COc1cccc(C(=O)Oc2cc3c4c(c2)C(C)=CC(C)(C)N4C(=O)C3=O)c1
IC50 [24]: 43.2 µM (inactive)

CCOC(=O)C1CCN(C(=O)COc2ccc([N+](=O)[O-])cc2)CC1
IC50 (Fatty acid synthase [1]): 9.85 µM (active)
IC50 (Fatty acid synthase [2]): 9.05 µM (active)
